# Data taken from patent publication US20050282824A1, “Substituted pyrimidines as inhibitors of bacterial type III protein secretion systems” (priority 2004, published 2005).
# Tests used:
# Assay type in all cases: cell-based
# [1] = tested on: Type III protein secretion of ExoU by P. aeruginosa PA103; experiment: Tertiary assay: Type III-dependent secretion of ExoU by P. aeruginosa PA103; settings: Pseudomonas aeruginosa, read-out: ExoU IC50(uM)
# Text: Tertiary assay: inhibition of Type III protein secretion of effectors from a Pseudomonas aeruginosa system. Type III protein secretion is used by P. aeruginosa to secrete several essential virulence determinants. One effector of the type III protein secretion system of P. aeruginosa PA 103 is the virulence determinants ExoU.
# The amount of Type III-dependent secretion of ExoU by P. aeruginosa PA103 can be determined in a cell-based assay by quantification of the 73.9 kDa ExoU protein secreted into the extracellular medium. Such quantitation can be achieved by growing strain PA 103 in a deferrated medium in the presence of nitrilotriacetic acid (an inducer of Type III protein secretion in P. aeruginosa) and either in the presence or absence of putative inhibitors. After a prolonged growth period, the cells are sedimented and the supernatants concentrated by ammonium sulfate precipitation. The proteins in the resuspended pellets are separated by electrophoresis on SDS-polyacrylamide gels. After staining gels with Colloidal Blue™, the 73.9 kDa ExoU band is quantitated by scanning through an imager. The effects of inhibitors on the intensity of the ExoU band may be measured relative to that of untreated controls.
# [2] = tested on: SPI1 type III protein secretion of SipB by S. enterica; experiment: Secondary assay: Type III-dependent protein secretion of the SipB polypeptide by S. enterica; settings: Salmonella enterica, read-out: SipB IC50(uM)
# Experimental: Secondary assay: Type III-dependent protein secretion of the SipB polypeptide by S. enterica. The SipB protein of S. enterica is another effector of the SPI1 type III protein secretion system from S. enterica. In this cell-based procedure, the Type III-dependent secretion of SipB from the bacterial cytoplasm to the extracellular medium was measured through its reactivity with a cognate mouse monoclonal.
# Salmonella enterica cells growing either in the presence or in the absence of inhibitors are induced for the production of SipB. Following an established period of growth the cells are sedimented and the amount of SipB present in the supernatant is quantified with a scanning imager following application of immunoblot techniques. Detection may employ an anti-SipB mouse monoclonal antibody (e.g., obtained from Jorge Galan, SUNY at Stony Brook, N.Y.) followed by treatment with commercially available sheep anti-mouse polyclonal antibody conjugated with horseradish peroxidase. Thereafter the membrane is treated with a peroxidase chemiluminescent substrate and exposed to film for an appropriate exposure time. Inhibition may be measured relative to untreated controls.
# [3] = tested on: SPI1 type III protein secretion of SopE'-'Bla by Salmonella enterica; experiment: Primary assay: Type III protein secretion of the chimeric SopE'-'Bla polypeptide by Salmonella enterica; settings: read-out: SopE IC50(uM)
# Text: Primary assay: Type III protein secretion of the chimeric SopE′-′Bla polypeptide by Salmonella enterica. This procedure is a cell-based assay that measures the type III-dependent secretion by Salmonella enterica of a plasmid-encoded chimeric polypeptide whose synthesis can be regulated, and which is endowed with an enzymatic activity that can be monitored […] by hydrolysis of a substrate that is unable to penetrate into the bacterial cytoplasm within the time constraints of the reaction. Thus, the colorimetric reaction is not influenced by SopE′-′Bla polypeptide in the bacterial cytoplasm. Instead, it effectively measures the amount of polypeptide that has been secreted from the S. enterica cytoplasm to the extracellular medium via type III system protein secretion.
# The SopE′-′Bla recombinant polypeptide consists of two functionally distinct domains spliced together. The N-terminus domain is encoded by a polynucleotide region specifying the signal for type III secretion of the SopE polypeptide of S. enterica, an effector of the SPI1 type III protein secretion system. The C-terminus domain of SopE′-′Bla consists of a 263 amino acid peptide sequence that corresponds to the TEM-1 β-lactamase expressed by plasmid pBR322 but without its N-terminal signal sequence. The TEM-1 β-lactamase part of the SopE′-′Bla chimeric polypeptide is used as a reporter enzyme. It is capable of hydrolyzing nitrocefin resulting in a product whose accumulation can be monitored by colorimetric detection. The secretion of the SopE′-′Bla chimeric polypeptide from the cytoplasm to the extracellular medium is dependent on type III protein secretion.
# For this procedure, cells grown under conditions known to favor a functional SPI1 secretion system are induced for expression of the SopE′-′Bla protein and grown either in the presence or in the absence of putative inhibitors for determined time. Nitrocefin is then added to the various cultures and its hydrolysis are used for quantitation. An inhibitor of Type III protein secretion is generally a compound that reduces the signal of the enzymatic reaction by decreasing the amount of SopE′-′Bla secreted into the extracellular medium.
SMILES,IC50 [1],IC50 [2],IC50 [3]
"Cc1cc(C(=O)NC(Cc2ccc(Cl)cc2)C(=O)O)nc(-c2ccc(-c3ccccc3)cc2)n1 (stereo not drawn) [Compound 1, 2-[(2-Biphenyl-4-yl-6-methyl-pyrimidine-4-carbonyl)amino]-3-(4-chlorophenyl)-propionic acid]",83.9 µM,4.4 µM,7.4 µM
"O=C(N[C@@H](CSCc1ccccc1)C(=O)O)c1cc(N2CCCCC2)nc(-c2ccc(-c3ccccc3)cc2)n1 [Compound 3, (R)-3-Benzylsulfanyl-2-[(2-biphenyl-4-yl-6-piperidin-1-yl-pyrimidine-4-carbonyl)-amino]propionic acid]",37.6 µM,3 µM,4.1 µM
"O=C(N[C@H](Cc1ccc(Cl)cc1)C(=O)O)c1cc(N2CCCCC2)nc(N2CCC(c3ccccc3)CC2)n1 [Compound 4, (R)-3-(4-Chlorophenyl)-2-{[2-(4-phenylpiperidin-1-yl)-6-piperidin-1-yl-pyrimidine-4-carbonyl]amino}propionic acid]",> 100 µM,27 µM,2 µM
"CN(C)c1ccc(-c2nc(C(=O)N[C@H](Cc3ccc(Cl)cc3)C(=O)O)cc(N3CCc4ccccc4C3)n2)cc1 [Compound 6, (R)-3-(4-Chlorophenyl)-2-{[6-(3,4-dihydro-1H-isoquinolin-2-yl)-2-(4-dimethylaminophenyl)pyrimidine-4-carbonyl]amino}propionic acid]",68.4 µM,50 µM,4.5 µM
"O=C(N[C@H](COCc1ccccc1)C(=O)O)c1cc(N2CCC(c3ccccc3)CC2)nc(-c2ccc(Cl)c(Cl)c2)n1 [Compound 11, (R)-3-Benzyloxy-2-{[2-(3,4-dichlorophenyl)-6-(4-phenylpiperidin-1-yl)-pyrimidine-4-carbonyl]amino}propionic acid]",92.2 µM,44.2 µM,1.4 µM
"O=C(N[C@H](Cc1ccc(Cl)cc1)C(=O)O)c1cc(N2CCC(c3ccccc3)CC2)nc(-c2cccc(C(F)(F)F)c2)n1 [Compound 12, (R)-3-(4-Chlorophenyl)-2-{[6-(4-phenylpiperidin-1-yl)-2-(3-trifluoromethyl-phenyl)pyrimidine-4-carbonyl]amino}propionic acid]",> 100 µM,28.1 µM,1.4 µM
"O=C(N[C@H](Cc1ccc(Cl)cc1)C(=O)O)c1cc(N2CCCc3ccccc32)nc(-c2cccc(C(F)(F)F)c2)n1 [Compound 13, (R)-3-(4-Chlorophenyl)-2-{[6-(3,4-dihydro-2H-quinolin-1-yl)-2-(3-trifluoromethyl-phenyl)pyrimidine-4-carbonyl]amino}propionic acid]",> 100 µM,19.4 µM,1.3 µM
"CN(C)c1ccc(-c2nc(C(=O)N[C@H](Cc3ccc(Cl)cc3)C(=O)O)cc(N3CCC(c4ccccc4)CC3)n2)cc1 [Compound 14, (R)-3-(4-Chlorophenyl)-2-{[2-(4-dimethylaminophenyl)-6-(4-phenylpiperidin-1-yl)pyrimidine-4-carbonyl]amino}propionic acid]",> 100 µM,27.6 µM,1.8 µM
"O=C(N[C@H](Cc1ccc(Cl)cc1)C(=O)O)c1cc(N2CCC(c3ccccc3)CC2)nc(-c2ccc(C(F)(F)F)cc2)n1 [Compound 15, (R)-3-(4-Chlorophenyl)-2-{[6-(4-phenylpiperidin-1-yl)-2-(4-trifluoromethylphenyl)-pyrimidine-4-carbonyl]amino}propionic acid]",68.1 µM,8.5 µM,3.6 µM
"O=C(N[C@H](Cc1ccc(Cl)cc1)C(=O)O)c1cc(N2CCCc3ccccc32)nc(-c2ccc(Oc3ccccc3)cc2)n1 [Compound 16, (R)-3-(4-Chlorophenyl)-2-{[6-(3,4-dihydro-2H-quinolin-1-yl)-2-(4-phenoxy-phenyl)pyrimidine-4-carbonyl]amino}propionic acid]",62.2 µM,10.2 µM,6.2 µM
"O=C(N[C@@H](CSCc1ccccc1)C(=O)O)c1cc(N2CCC(c3ccc(F)cc3)CC2)nc(-c2ccc(Cl)c(Cl)c2)n1 [Compound 17, (R)-3-Benzylsulfanyl-2-({2-(3,4-dichlorophenyl)-6-[4-(4-fluorophenyl)piperidin-1-yl]pyrimidine-4-carbonyl}amino)propionic acid]",> 100 µM,23 µM,1.6 µM
"O=C(N[C@@H](CSCc1ccccc1)C(=O)O)c1cc(N2CCC(c3ccccc3)CC2)nc(-c2ccc(F)c(F)c2)n1 [Compound 18, (R)-3-Benzylsulfanyl-2-{[2-(3,4-difluorophenyl)-6-(4-phenylpiperidin-1-yl)-pyrimidine-4-carbonyl]amino}propionic acid]",46.6 µM,16.8 µM,19 µM
"O=C(N[C@@H](CSCc1ccccc1)C(=O)O)c1cc(N2CCN(c3ccccc3)CC2)nc(-c2ccc(F)c(F)c2)n1 [Compound 19, (R)-3-Benzylsulfanyl-2-{[2-(3,4-difluorophenyl)-6-(4-phenyl-piperazin-1-yl)-pyrimidine-4-carbonyl]amino}propionic acid]",67.8 µM,8 µM,6.4 µM
"O=C(N[C@@H](CSCc1ccccc1)C(=O)O)c1cc(N2CCC(c3ccccc3)CC2)nc(-c2ccc(C(F)(F)F)cc2)n1 [Compound 21, (R)-3-Benzylsulfanyl-2-{[6-(4-phenylpiperidin-1-yl)-2-(4-trifluoromethylphenyl)-pyrimidine-4-carbonyl]amino}propionic acid]",39 µM,24.8 µM,3.6 µM
"O=C(N[C@@H](CSCc1ccccc1)C(=O)O)c1cc(N2CCC(c3ccc(F)cc3)CC2)nc(-c2ccc(C(F)(F)F)cc2)n1 [Compound 22, (R)-3-Benzylsulfanyl-2-{[6-[4-(4-fluorophenyl)piperidin-1-yl]-2-(4-trifluoromethylphenyl)pyrimidine-4-carbonyl]amino}propionic acid]",52.6 µM,> 100 µM,1.8 µM
"O=C(N[C@@H](CSCc1ccccc1)C(=O)O)c1cc(N2CCN(c3ccccc3)CC2)nc(-c2ccc(C(F)(F)F)cc2)n1 [Compound 23, (R)-3-Benzylsulfanyl-2-{[6-(4-phenyl-piperazin-1-yl)-2-(4-trifluoromethylphenyl)-pyrimidine-4-carbonyl]amino}propionic acid]",73 µM,31.7 µM,3.3 µM
"O=C(N[C@@H](CSCc1ccccc1)C(=O)O)c1cc(N2CCN(c3ccccc3)CC2)nc(-c2ccc(Cl)cc2)n1 [Compound 24, (R)-3-Benzylsulfanyl-2-{[2-(4-chlorophenyl)-6-(4-phenyl-piperazin-1-yl)-pyrimidine-4-carbonyl]amino}propionic acid]",46.9 µM,39.2 µM,5.45 µM
"N#Cc1ccc(-c2nc(C(=O)N[C@@H](CSCc3ccccc3)C(=O)O)cc(N3CCN(c4ccccc4)CC3)n2)cc1 [Compound 25, (R)-3-Benzylsulfanyl-2-{[2-(4-cyanophenyl)-6-(4-phenyl-piperazin-1-yl)-pyrimidine-4-carbonyl]amino}propionic acid]",57.2 µM,51.9 µM,6.5 µM
